In patent US12059412B2, “Pharmaceutical composition containing (R)-N-[1-(3,5-difluoro-4-methanesulfonylamino-phenyl)-ethyl]-3-(2-propyl-6-trifluoromethylpyridin-3-yl)-acrylamide and method for inhibiting crystal formation thereof” (Amorepacific Corporation, priority 2018, dated 2024):

Experiment: Solubility of compound of Formula 1 in various solvents (excess compound, shaking, HPLC)
Format: physicochemical
Details: Ethanol; 25° C., 24 hours
Method: Since solvent that gives high solubility can dissolve the compound of Formula 1 in a small amount compared to a solvent that gives low solubility, in particular, when formulated into an external preparation of skin, a relatively higher amount of water may be contained, so that the feeling of use can be further enhanced.
An excessive amount of the compound of Formula 1 was added to 1 mL of each solvent shown in Table 1 below, and stirred at 25° C. at 200 rpm for 24 hours while shaking
(Shaking incubator, SI 600R, JEIO TECH, Korea). Thereafter, centrifugation was performed at 10,000 rpm for 10 minutes, and the supernatant was filtered using a membrane filter (0.2 μm), diluted appropriately with methanol, and analyzed by HPLC.

**Q.** For `CCCc1nc(C(F)(F)F)ccc1/C=C/C(=O)N[C@H](C)c1cc(F)c(NS(C)(=O)=O)c(F)c1` [compound of Formula 1, (R)-N-[1-(3,5-difluoro-4-methanesulfonylamino-phenyl)-ethyl]-3-(2-propyl-6-trifluoromethyl-pyridin-3-yl)-acrylamide], which “Solubility” value is on record?
**A.** Its value is 75.32 mg/mL.
